Assay results reported in PMC8325362, “Drugs repurposed for COVID-19 by virtual screening of 6,218 drugs and cell-based assay” (Proceedings of the National Academy of Sciences of the …, 2021).
Read-outs that look alike come from different tables or passages of the source.

Tests used:
SARS-CoV-2 [1] = assay: microbe, parasite or virus in culture; assay type: cell-based; settings: for IC50: Calu-3 cells, MOI 0.5, 24 h
M^pro = M^pro (Severe acute respiratory syndrome coronavirus 2, UniProt P0DTD1); assay type: biochemical; settings: FRET assay, 0.1 to 50 μM
SARS-CoV-2 [2] = assay: Checkerboard drug combination assay, SARS-CoV-2 inhibition in Vero cells; assay type: cell-based; settings: Severe acute respiratory syndrome coronavirus 2, Vero, read-out: Relative viral inhibition (%); for inhibition at 0.03 µM: Omipalisib 0.03 μM; for inhibition at 0.06 µM: Omipalisib 0.06 μM; for inhibition at 0.12 µM: Omipalisib 0.12 μM; for inhibition at 0.25 µM: Omipalisib 0.25 μM; for inhibition at 0.49 µM: Omipalisib 0.49 μM; for inhibition at 0.98 µM: Omipalisib 0.98 μM; for inhibition at 1.97 µM: Omipalisib 1.97 μM; for inhibition at 0.63 µM: Remdesivir 0.63 μM; for inhibition at 1.26 µM: Remdesivir 1.26 μM; for inhibition at 2.52 µM: Remdesivir 2.52 μM; for inhibition at 5.05 µM: Remdesivir 5.05 μM; for inhibition at 10.09 µM: Remdesivir 10.09 μM; for inhibition at 20.18 µM: Remdesivir 20.18 μM; for inhibition at 40.36 µM: Remdesivir 40.36 μM
SARS-CoV-2 [3] = test system: SARS-CoV-2
SARS-CoV-2 [4] = assay: in vitro; settings: African green monkey
in vitro [5] = settings: African green monkey
in vitro [6] = settings: human
in vitro [7] = settings: African green monkey, Relative cell viability (%)
[8] = human, cited from earlier work
SARS-CoV-2 [9] = assay: microbe, parasite or virus in culture; settings: Severe acute respiratory syndrome coronavirus 2, Vero, 24 h, read-out: SARS-CoV-2 IC50 in Vero cells
COVID-19 = settings: cited from earlier work
[10] = Checkerboard drug combination assay, cell viability of Vero cells; settings: African green monkey, Vero cells (ATCC CCL-81), Relative cell viability (%); for viability at 24 h, 0.63 μM: Remdesivir 0.63 μM; for viability at 24 h, 1.26 μM: Remdesivir 1.26 μM; for viability at 24 h, 2.52 μM: Remdesivir 2.52 μM; for viability at 24 h, 5.05 μM: Remdesivir 5.05 μM; for viability at 24 h, 10.09 μM: Remdesivir 10.09 μM; for viability at 24 h, 20.18 μM: Remdesivir 20.18 μM; for viability at 24 h, 40.36 μM: Remdesivir 40.36 μM
[11] = Severe acute respiratory syndrome coronavirus 2, Calu-3, 24 h

Question: What does the source list for COc1ncc(-c2ccc3nccc(-c4ccnnc4)c3c2)cc1NS(=O)(=O)c1ccc(F)cc1F [Omipalisib]?
Answer: fold higher activity than remdesivir (SARS-CoV-2 [1]; Calu-3): 200 fold; IC50 (SARS-CoV-2 [1]): 10 nM; fold lower IC50 in Calu-3 cells than in Vero cells (SARS-CoV-2 [1]; Calu-3 vs Vero): 49 fold; IC50 (SARS-CoV-2 [1]; [11]): 10 nM; inhibitory activity against M^pro (M^pro): showed no inhibitory activity; inhibition at 0.03 µM (SARS-CoV-2 [2]; Fig. 4A, Remdesivir 0.00 μM): 6%; inhibition at 0.06 µM (SARS-CoV-2 [2]; Fig. 4A, Remdesivir 0.00 μM): 6%; inhibition at 0.12 µM (SARS-CoV-2 [2]; Fig. 4A, Remdesivir 0.00 μM): 15%; inhibition at 0.25 µM (SARS-CoV-2 [2]; Fig. 4A, Remdesivir 0.00 μM): 29%; inhibition at 0.49 µM (SARS-CoV-2 [2]; Fig. 4A, Remdesivir 0.00 μM): 63%; inhibition at 0.98 µM (SARS-CoV-2 [2]; Fig. 4A, Remdesivir 0.00 μM): 73%; inhibition at 1.97 µM (SARS-CoV-2 [2]; Fig. 4A, Remdesivir 0.00 μM): 78%; inhibition at 0.03 µM (SARS-CoV-2 [2]; Fig. 4D, Tipifarnib 0.00 μM): 11%; inhibition at 0.06 µM (SARS-CoV-2 [2]; Fig. 4D, Tipifarnib 0.00 μM): 31%; inhibition at 0.12 µM (SARS-CoV-2 [2]; Fig. 4D, Tipifarnib 0.00 μM): 60%; inhibition at 0.25 µM (SARS-CoV-2 [2]; Fig. 4D, Tipifarnib 0.00 μM): 90%; inhibition at 0.49 µM (SARS-CoV-2 [2]; Fig. 4D, Tipifarnib 0.00 μM): 93%; inhibition at 0.98 µM (SARS-CoV-2 [2]; Fig. 4D, Tipifarnib 0.00 μM): 95%; inhibition at 1.97 µM (SARS-CoV-2 [2]; Fig. 4D, Tipifarnib 0.00 μM): 95%; fold higher antiviral activity than remdesivir (SARS-CoV-2 [3]; Vero cells): 20 fold; selectivity ratio (SARS-CoV-2 [4]): 62.8; CC50 at 24 h (in vitro [5]): 30800 nM; CC50 at 24 h (in vitro [6]): > 20 nM; viability (in vitro [7]; Fig. 4B, Omipalisib 0.03 μM, Remdesivir 0.00 μM): 82%; viability (in vitro [7]; Fig. 4B, Omipalisib 0.06 μM, Remdesivir 0.00 μM): 82%; viability (in vitro [7]; Fig. 4B, Omipalisib 0.12 μM, Remdesivir 0.00 μM): 80%; viability (in vitro [7]; Fig. 4B, Omipalisib 0.25 μM, Remdesivir 0.00 μM): 81%; viability (in vitro [7]; Fig. 4B, Omipalisib 0.49 μM, Remdesivir 0.00 μM): 80%; viability (in vitro [7]; Fig. 4B, Omipalisib 0.98 μM, Remdesivir 0.00 μM): 81%; viability (in vitro [7]; Fig. 4B, Omipalisib 1.97 μM, Remdesivir 0.00 μM): 80%; viability (in vitro [7]; Fig. 4E, Tipifarnib 0.00 μM, Omipalisib 0.03 μM): 87%; viability (in vitro [7]; Fig. 4E, Tipifarnib 0.00 μM, Omipalisib 0.06 μM): 89%; viability (in vitro [7]; Fig. 4E, Tipifarnib 0.00 μM, Omipalisib 0.12 μM): 88%; viability (in vitro [7]; Fig. 4E, Tipifarnib 0.00 μM, Omipalisib 0.25 μM): 88%; viability (in vitro [7]; Fig. 4E, Tipifarnib 0.00 μM, Omipalisib 0.49 μM): 88%; viability (in vitro [7]; Fig. 4E, Tipifarnib 0.00 μM, Omipalisib 0.98 μM): 87%; viability (in vitro [7]; Fig. 4E, Tipifarnib 0.00 μM, Omipalisib 1.97 μM): 84%; Cmax ([8]; in vivo, po): ~0.3 µM; IC50 (SARS-CoV-2 [9]): 490 nM

Question: What does the source list for CCC(CC)COC(=O)[C@H](C)N[P@](=O)(OC[C@H]1O[C@@](C#N)(c2ccc3c(N)ncnn23)[C@H](O)[C@@H]1O)Oc1ccccc1 [Remdesivir]?
Answer: IC50 (SARS-CoV-2 [1]; [11]): 2490 nM; inhibition at 0.63 µM (SARS-CoV-2 [2]; Fig. 4A, Omipalisib 0.00 μM): 4%; inhibition at 1.26 µM (SARS-CoV-2 [2]; Fig. 4A, Omipalisib 0.00 μM): 4%; inhibition at 2.52 µM (SARS-CoV-2 [2]; Fig. 4A, Omipalisib 0.00 μM): 1%; inhibition at 5.05 µM (SARS-CoV-2 [2]; Fig. 4A, Omipalisib 0.00 μM): 20%; inhibition at 10.09 µM (SARS-CoV-2 [2]; Fig. 4A, Omipalisib 0.00 μM): 55%; inhibition at 20.18 µM (SARS-CoV-2 [2]; Fig. 4A, Omipalisib 0.00 μM): 81%; inhibition at 40.36 µM (SARS-CoV-2 [2]; Fig. 4A, Omipalisib 0.00 μM): 89%; inhibition at 0.63 µM (SARS-CoV-2 [2]; Fig. 4G, Tipifarnib 0.00 μM): 1%; inhibition at 1.26 µM (SARS-CoV-2 [2]; Fig. 4G, Tipifarnib 0.00 μM): 3%; inhibition at 2.52 µM (SARS-CoV-2 [2]; Fig. 4G, Tipifarnib 0.00 μM): 16%; inhibition at 5.05 µM (SARS-CoV-2 [2]; Fig. 4G, Tipifarnib 0.00 μM): 54%; inhibition at 10.09 µM (SARS-CoV-2 [2]; Fig. 4G, Tipifarnib 0.00 μM): 91%; inhibition at 20.18 µM (SARS-CoV-2 [2]; Fig. 4G, Tipifarnib 0.00 μM): 97%; inhibition at 40.36 µM (SARS-CoV-2 [2]; Fig. 4G, Tipifarnib 0.00 μM): 98%; antiviral activity against SARS-CoV-2 in Vero cells (SARS-CoV-2 [3]; assay validation with reference drugs): showed antiviral activity; patients with clinical improvement (COVID-19; 36 out of 53 patients with severe illness): 68%; average recovery time (COVID-19; COVID-19 patients, vs 15 d placebo): 11 days; clinical benefits (COVID-19; severe COVID-19 patients): no statistically significant clinical benefits; selectivity ratio (SARS-CoV-2 [4]): 4.96; CC50 (in vitro [5]): > 50000 nM; CC50 (in vitro [6]): > 50000 nM; Cmax ([8]; read-out: Approx. Cmax (maximum serum concentration), intravenous injection): ~9 µM; IC50 (SARS-CoV-2 [9]): 10100 nM; viability at 24 h, 0.63 μM ([10]; Fig. 4B, Omipalisib 0.00 μM): 86%; viability at 24 h, 1.26 μM ([10]; Fig. 4B, Omipalisib 0.00 μM): 87%; viability at 24 h, 2.52 μM ([10]; Fig. 4B, Omipalisib 0.00 μM): 87%; viability at 24 h, 5.05 μM ([10]; Fig. 4B, Omipalisib 0.00 μM): 91%; viability at 24 h, 10.09 μM ([10]; Fig. 4B, Omipalisib 0.00 μM): 92%; viability at 24 h, 20.18 μM ([10]; Fig. 4B, Omipalisib 0.00 μM): 93%; viability at 24 h, 40.36 μM ([10]; Fig. 4B, Omipalisib 0.00 μM): 93%; viability at 24 h, 0.63 μM ([10]; Fig. 4H, Tipifarnib 0.00 μM): 88%; viability at 24 h, 1.26 μM ([10]; Fig. 4H, Tipifarnib 0.00 μM): 90%; viability at 24 h, 2.52 μM ([10]; Fig. 4H, Tipifarnib 0.00 μM): 94%; viability at 24 h, 5.05 μM ([10]; Fig. 4H, Tipifarnib 0.00 μM): 97%; viability at 24 h, 10.09 μM ([10]; Fig. 4H, Tipifarnib 0.00 μM): 95%; viability at 24 h, 20.18 μM ([10]; Fig. 4H, Tipifarnib 0.00 μM): 98%; viability at 24 h, 40.36 μM ([10]; Fig. 4H, Tipifarnib 0.00 μM): 94%
